How the values were obtained:
Type in all cases: in vitro ADME
[1] = Plasma protein binding (ultrafiltration), rat; details: male, Sprague Dawley, 50 to 50 000 ng/mL, mean ± SD, n = 3, read-out: percentage protein binding (converted)
Experimental: [^14C]‐Ataluren, at 50, 500, 5000, and 50 000 ng/mL or 0.175, 1.75, 17.5, and 175 µM, in male mouse, rat, dog, monkey, and human plasma, was incubated (n = 3) at 37°C for approximately 15 minutes, transferred into Centrifree® Micropartition Units (30 000 Da molecular weight cutoff, 1 mL capacity; Amicon Inc), and centrifuged at 37°C and 2000 g for approximately 10 minutes so that the amount of the sample filtered was approximately ≤ 20% of the total volume. After centrifugation, the entire ultrafiltrate was weighed and analyzed for radioactivity using liquid scintillation counting. The percent bound = (1‐Cu/Cm)×100, where Cu is the concentration of radioactivity in the ultrafiltrate and Cm is the concentration of radioactivity in the plasma before centrifugation.

UGT1A9 = target: T1, UGT1A9 (Homo sapiens, UniProt O60656); experiment: Reaction phenotyping with recombinant human UGT enzymes: UGT1A9; details: rUGT1A9 0.25 mg protein/mL, 10 μmol/L, 60 minutes, n = 2
T1 construct: purchased BD Biosciences; host or cells: baculovirus-infected insect cells
T1 sequence (O60656 26-530): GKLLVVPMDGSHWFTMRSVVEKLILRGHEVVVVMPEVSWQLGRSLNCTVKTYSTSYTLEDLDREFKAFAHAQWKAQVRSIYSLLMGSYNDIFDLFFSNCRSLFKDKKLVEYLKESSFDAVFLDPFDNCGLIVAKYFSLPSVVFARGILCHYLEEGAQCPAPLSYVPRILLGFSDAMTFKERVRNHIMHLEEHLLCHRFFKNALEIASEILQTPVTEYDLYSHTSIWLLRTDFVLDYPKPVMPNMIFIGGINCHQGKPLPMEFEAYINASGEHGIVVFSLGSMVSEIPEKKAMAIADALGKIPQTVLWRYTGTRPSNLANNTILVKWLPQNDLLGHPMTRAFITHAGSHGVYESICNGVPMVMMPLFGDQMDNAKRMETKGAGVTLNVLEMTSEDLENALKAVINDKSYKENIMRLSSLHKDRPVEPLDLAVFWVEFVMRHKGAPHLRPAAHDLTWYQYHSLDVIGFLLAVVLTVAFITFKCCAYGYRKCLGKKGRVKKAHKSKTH
Experimental: Ataluren at 10 μmol/L, was incubated (n = 2) with recombinant human uridine diphosphate glucuronosyltransferase (rUGT) enzymes: rUGTs 1A1, 1A3, 1A4, 1A6, 1A7, 1A8, 1A9, 1A10, 2B4, 2B7, 2B15, and 2B17 at 0.25 mg protein/mL. Incubations were conducted in duplicate at 37°C. The incubation mixture (0.2 mL, final volume with 1% methanol) consisted of Tris‐HCl buffer (100 mmol/L, pH 7.7 at 37°C), MgCl2 (10 mmol/L), EDTA (1 mmol/L), saccharic acid 1,4‐lactone (0.1 mmol/L), and UDPGA (8 mmol/L). […] Samples were subjected to centrifugation (920 g for 10 minutes at 10°C) and the supernatant fractions were analyzed by LC‐MS/MS to quantify the formation of ataluren‐O‐1β‐acyl glucuronide and loss of ataluren. […] The ataluren acyl glucuronide formation rate after 60 minutes incubation was calculated using the amount of metabolite formed (pmol) divided by the protein amount in the incubation sample (0.05 mg) and the incubation time (60 minutes).
Quantification of ataluren loss and ataluren‐O‐1β‐acyl glucuronide formation was carried out with an LC‐MS/MS system, which consisted of two Shimadzu LC‐10ADvp pumps, a SPD10‐AVP UV/Vis detector, a Shimadzu SILHTA autosampler, a Shimadzu DGU‐14A degasser, and a Sciex API 4000 QTRAP mass spectrometer equipped with a Turbo Ionspray ionization source that operated in positive ionization mode. […]

CYP2C9 = experiment: CYP induction in primary human hepatocytes: CYP2C9; details: male, 48 h
Experimental: Human hepatocytes isolated from three Caucasian males were transferred to 48‐well collagen‐coated plates at 0.14 × 10^6 cells/well in planting media for attachment. After attachment, planting media was replaced with sandwich media and the cells were incubated until clusters were established. […] The incubation solutions were aspirated and replaced with freshly prepared incubation solutions containing ataluren for an additional 24 hours. […] The incubation solutions were then aspirated and 150 µL of K‐H buffer containing CYP substrates were added. The hepatocytes were incubated for 30 minutes for CYP2C8 (10 µmol/L amodiaquine), 1 hour for CYP3A4 (125 µmol/L testosterone), and 4 hours for CYPs 1A2 (100 µmol/L phenacetin), 2A6 (100 µmol/L coumarin), 2B6 (150 µmol/L bupropion), 2C9 (50 µmol/L tolbutamide), 2C19 (100 µmol/L S‐mephenytoin), and 2E1 (300 µmol/L chlorzoxazone) activity assays. The reactions were stopped by the addition of 0.15 mL of ice‐cold methanol except that coumarin‐treated cells were incubated with β‐glucuronidase and aryl sulfatase for additional 1 hour to free 7‐hydroxycoumarin before the addition of 0.2 mL of ice‐cold methanol. Metabolite formation in incubations with test compounds and control inhibitors was assessed with validated LC‐MS/MS methods for each of the reaction products as described in Table S2. Enzymatic activity for each CYP was calculated using the absolute amount of metabolite formed (pmol) divided by hepatocytes in the incubation (million cells) and the incubation time (minute). The relative fold induction in enzymatic activity was calculated by comparing the rate of metabolite formation for treatment groups to that of the solvent control group (reported as vehicle control%) or positive control group (reported as positive control%).

## O=C(O)c1cccc(-c2noc(-c3ccccc3F)n2)c1 [ataluren, Ataluren]
[1]
  fraction unbound at 15 min: 0.013
UGT1A9
  ataluren loss: 32.7%
CYP2C9; 4 µM
  Vehicle control %, Mean: 100%
CYP2C9; 400 µM
  Vehicle control %, Mean: 146%
CYP2C9; hepatocytes, 400 µmol/L
  induction over vehicle control, CYP2C9 activity: ~1.5 fold

Source: paper PMC7083565, “In vitro metabolism, reaction phenotyping, enzyme kinetics, CYP inhibition and induction potential of ataluren” (Pharmacology Research & Perspectives, 2020)
